“Also recorded” adds a separate entry of the source. Structures can show the parent of a compound that is named as a salt. Where two headings read alike, the source gives them in different places.
Assays:
[1] = Approximate aqueous solubility by portion-wise addition of solid to water, visual inspection
Experimental: An attempt was made to measure the aqueous solubility of zotepine hydrochloride. To a 1-dram vial was charged 99 mg of zotepine hydrochloride, and 1 mL of HPLC-grade water (obtained from Mallinckrodt) was added.
A 0.5-mL aliquot of the resulting zotepine hydrochloride aqueous solution was then charged to a second 2-dram vial, and 50 mg of zotepine hydrochloride (50 mg) was added. […] At this point, the procedure was discontinued.

[2] = Intrinsic dissolution in water at 25° C. (Woods apparatus pellets, UV at 302 nm); type: physicochemical; details: for intrinsic dissolution rate: 50 RPM, 900 mL, mean of three pellets, equivalent hydrochloride salt concentration, not normalized for surface area
Experimental: Intrinsic Dissolution: Pellets of approximately 200 mg were pressed at 3000 lbs. for 1 minute in a standard Woods apparatus, with a surface area of 0.5 cm^2. Three pellets were tested for each material, testing one material at a time. The samples were rotated in a VanKel dissolution apparatus, with automated sampling, at 50 RPM in 900 mL of water at 25° C. Aliquots were taken every two minutes and not filtered prior to analysis. Concentrations were determined through UV absorbance at approximately 302 nm, to avoid potential interference from benzoic acid. Equivalent hydrochloride salt concentrations were calculated from the Beer's Law plot generated from zotepine hydrochloride salt aqueous standards.
To determine the rate of dissolution of each material, a plot was generated of the absorbance over time for each vessel. From this plot, a linear region was chosen from the initial dissolution period of each material: starting at the first time point when the measured absorbance exceeded the minimum measured absorbance value in the Beer's Law relationship generated from zotepine hydrochloride salt aqueous standards. The end of the linear region was chosen as either 30 minutes after the first time point, or at the maximum recorded absorbance value that falls within the Beer's Law Relationship. Equivalent hydrochloride salt concentrations were plotted versus time for the regions. A straight-line was fit to the data for each vessel. The slope of these lines provides the dissolution rate for each of the materials, expressed as [μg/mL]/min. The mean of the three rates is the reported rate for each material, expressed as equivalent hydrochloride salt concentration, for direct comparison of the materials. The rates were not normalized for the surface area of the pellet.

[3] = Equilibrium solubility in water, ambient-temperature slurry, UV measurement; type: physicochemical; details: for equilibrium solubility in water / solid recovered from solubility experiment (XRPD analysis) / aqueous solubility (in words): ambient temperature; for equilibrium solubility in water: UV analysis of supernatant; for solid recovered from solubility experiment (XRPD analysis) / aqueous solubility (in words): water
Experimental: Equilibrium Solubility—UV Measurement: Equilibrium solubility was determined in water using ambient-temperature slurry experiments. Samples were prepared with excess solids and agitated on a wheel for at least 3 days. Remaining solids were separated from the mixture by centrifugation. The clear supernatant was pipeted to a separate container and the concentration determined through ultraviolet (UV) spectrophotometry, diluting the sample with additional water if necessary. […] Equivalent zotepine hydrochloride salt concentrations were calculated from the Beer's Law plot generated front zotepine hydrochloride salt aqueous standards and adjusted to account for the stoichiometry of the solids utilized. Retained solids were analyzed by X-ray powder diffraction, if sufficient solids were present. Concentrations of aqueous solutions of BNV-218 were determined through ultraviolet absorbance. Ultraviolet spectrophotometry: Solutions were analyzed using a Cary 50 dual-beam spectrophotometer. They were analyzed at ambient temperature in a 1.000-cm quartz cuvette. Scans at 600 nm/min in the range of 800-200 nm were performed to determine an optimal wavelength for concentration measurement. The cuvette was washed with methanol, followed by water, and the detector was then zeroed prior to analysis of each sample. Wavelength calibration was performed using holmium oxide. The photometric accuracy was verified by measuring the intensity of the light at the detector when filters of known optical density were placed in the path of the beam.

[4] = cited from earlier work
[5] = pharmaceutical formulations containing the zotepine free base; cited from earlier work
[6] = listed as crystalline zotepine hydrochloride, hydrochloride

CN(C)CCOC1=Cc2ccccc2Sc2ccc(Cl)cc21.Cl.O=C(O)c1ccccc1 [1:1 zotepine hydrochloride benzoic acid cocrystal]
surface activity (suds on addition of solid to water, visual inspection) ([1]; water): exhibited surface activity
dissolution rate in water (in words) [2]: intermediate between those of zotepine free base and zotepine hydrochloride
solid recovered after dissolution experiment (XRPD analysis) [2]: the 1:1 zotepine hydrochloride benzoic acid cocrystal
intrinsic dissolution rate [2]: 0.3 [μg/mL]/min
equilibrium solubility in water [3]: ~44 mg/mL
equilibrium solubility in water ([3]; listed as 1:1 benzoic acid cocrystal): approximately 44 mg/mL
solid recovered from solubility experiment (XRPD analysis) [3]: 1:1 benzoic acid cocrystal

CN(C)CCOC1=Cc2ccccc2Sc2ccc(Cl)cc21 [zotepine hydrochloride]
surface activity (suds on addition of solid to water, visual inspection) [1]: high surface activity
intrinsic dissolution rate ([2]; listed as zotepine hydrochloride salt, hydrochloride): 3.9 [μg/mL]/min
dissolution rate in water (in words) [2, 6]: significantly higher
aqueous solubility (in words) [3, 6]: significantly higher

CN(C)CCOC1=Cc2ccccc2Sc2ccc(Cl)cc21.CN(C)CCOC1=Cc2ccccc2Sc2ccc(Cl)cc21.Cl.Cl.O=C(O)c1ccccc1 [2:1 zotepine hydrochloride benzoic acid cocrystal]
approximate solubility / calculated aqueous concentration from amount of solid added ([1]; water, portion-wise addition of solid, ambient temperature): ≥ 56 mg/mL
dissolution rate in water (in words) [2]: intermediate between those of the 1:1 zotepine hydrochloride benzoic acid cocrystal and zotepine hydrochloride
solid recovered after dissolution experiment (XRPD analysis) [2]: converts to the 2:1 zotepine hydrochloride benzoic acid cocrystal
intrinsic dissolution rate [2]: 2.3 [μg/mL]/min

CN(C)CCOC1=Cc2ccccc2Sc2ccc(Cl)cc21 [zotepine free base, 2-[(8-chlorodibenzo[b,f]thiepin-10-yl)oxy]-N,N-dimethylethylamine, reference compound]
approximate solubility / calculated aqueous concentration from amount of solid added [1]: less than 4 mg/mL
solubility in water as reported [4]: relatively insoluble in water
dissolution rate in water (in words) [2]: too low to be calculated; also recorded: negligible; also recorded: very close to zero
maximum UV absorbance in intrinsic dissolution experiment ([2]; 302 nm, experiment ended at 2,880 minutes): 0.02
bioavailability [5]: 7-13%
largest recorded UV absorbance at end of equilibrium solubility experiment [3]: 0.02
aqueous solubility (in words) [3]: negligible
solid recovered from solubility experiment (XRPD analysis) [3]: zotepine free base

Source: patent US20110275695A1, “CRYSTALLINE FORMS OF ZOTEPINE HYDROCHLORIDE” (BIONEVIA PHARMACEUTICALS, INC., priority 2008, published 2011)
